Test [1] has as its system TNFα release from THP-1 cells. Briefly: TNFα release from LPS-stimulated THP-1 cells. It counts as cell-based. As to conditions: Homo sapiens, THP-1, 18 h, LPS 10 μg/ml, 18 hours; read-out: TNFα (THP-1) IC50. Put shortly: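 THP-1 cells (10^6 cells/ml on resuspension) preincubated with compound 30 min at 37°C, 5% CO2, final DMSO ≤0.5%, then stimulated with 10 μg/ml LPS for 18 h (TNFα). Supernatants collected for TNFα analysis.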

In test [2] the target is T1, Syk (Homo sapiens, UniProt P43405).
T1 construct: purchased Upstate (Charlottesville, Va.)
Briefly: Broad selectivity panel, 32P incorporation. It counts as biochemical. As to conditions: 40 μM ATP, read-out: Percent inhibition Syk; for inhibition at 0.1 µM: 0.1 μM compound; for inhibition at 1 µM: 1 μM compound. The method, then:
(§1) Various compounds of the present invention are screened against a panel of 24 additional kinases (Upstate, Charlottesville, Va.). Compounds are tested 0.1 μM and 1 μM in reactions containing 40 μM ATP. Incorporation of radiolabeled phosphate (^32P) into each kinase substrate is measured in the presence and absence of test compound.

In test [3] the target is T2, Lck (Homo sapiens, UniProt P06239).
T2 construct: purchased Upstate (Charlottesville, Va.)
T2 sequence (P06239 whole entry, species assumed): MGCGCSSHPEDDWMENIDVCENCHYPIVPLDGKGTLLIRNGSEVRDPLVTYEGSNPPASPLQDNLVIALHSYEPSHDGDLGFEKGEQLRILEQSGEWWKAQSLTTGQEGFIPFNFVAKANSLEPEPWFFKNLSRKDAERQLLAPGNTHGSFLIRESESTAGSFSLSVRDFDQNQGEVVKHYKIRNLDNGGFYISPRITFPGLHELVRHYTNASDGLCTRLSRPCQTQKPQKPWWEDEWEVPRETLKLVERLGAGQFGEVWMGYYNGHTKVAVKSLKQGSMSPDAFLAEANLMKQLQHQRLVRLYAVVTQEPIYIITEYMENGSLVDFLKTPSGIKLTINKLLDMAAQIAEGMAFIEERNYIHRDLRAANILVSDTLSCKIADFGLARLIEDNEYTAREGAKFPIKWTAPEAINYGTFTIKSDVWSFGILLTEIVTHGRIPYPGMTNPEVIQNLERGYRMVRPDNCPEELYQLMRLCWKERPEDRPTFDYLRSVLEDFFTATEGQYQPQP
Kind of test: Broad selectivity panel, 32P incorporation. It is filed as biochemical. As to conditions: 40 μM ATP, read-out: Percent inhibition Lck; for inhibition at 0.1 µM: 0.1 μM compound; for inhibition at 1 µM: 1 μM compound. How it is done: as §1

Test [4] deals with T3, p38α (Homo sapiens, UniProt Q16539).
T3 construct: p38 MAP Kinases are recombinant human full-length proteins with an amino-terminal GST fusion; GST (N); purchased Upstate (Charlottesville, Va.); host or cells: E. coli
T3 sequence (Q16539 whole entry, the tested form may be a part): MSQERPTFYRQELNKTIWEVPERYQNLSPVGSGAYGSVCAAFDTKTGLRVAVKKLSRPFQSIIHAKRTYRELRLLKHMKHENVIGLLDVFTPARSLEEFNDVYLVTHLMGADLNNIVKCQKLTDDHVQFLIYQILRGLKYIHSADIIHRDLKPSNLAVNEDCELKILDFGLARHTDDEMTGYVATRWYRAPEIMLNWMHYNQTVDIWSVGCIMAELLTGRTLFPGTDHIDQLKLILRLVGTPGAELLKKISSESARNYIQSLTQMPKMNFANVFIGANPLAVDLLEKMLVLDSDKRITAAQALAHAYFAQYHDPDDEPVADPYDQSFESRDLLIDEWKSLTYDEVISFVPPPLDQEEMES
Briefly: p38 MAP Kinase assay, ATF2 phosphorylation (ELISA). It is filed as biochemical. As to conditions: 40 μM ATP. Put shortly:
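ATF2 Thr69 phosphorylation was quantified by ELISA (HRP/TMB, 450 nm) after EDTA termination. Reactions: 6 ng GST-fused full-length human p38α, 15 min compound pre-incubation at room temperature, then 30 min at 37° C with 40 μM ATP and 1.25 μM GST-ATF2 (aa 19-96), pH 7.5 HEPES buffer.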
Background: ELISA stands for enzyme-linked immunosorbent assay.

The target in test [5] is T4, InsR (Homo sapiens, UniProt P06213).
T4 construct: purchased Upstate (Charlottesville, Va.)
T4 sequence (P06213 28-1382, species assumed): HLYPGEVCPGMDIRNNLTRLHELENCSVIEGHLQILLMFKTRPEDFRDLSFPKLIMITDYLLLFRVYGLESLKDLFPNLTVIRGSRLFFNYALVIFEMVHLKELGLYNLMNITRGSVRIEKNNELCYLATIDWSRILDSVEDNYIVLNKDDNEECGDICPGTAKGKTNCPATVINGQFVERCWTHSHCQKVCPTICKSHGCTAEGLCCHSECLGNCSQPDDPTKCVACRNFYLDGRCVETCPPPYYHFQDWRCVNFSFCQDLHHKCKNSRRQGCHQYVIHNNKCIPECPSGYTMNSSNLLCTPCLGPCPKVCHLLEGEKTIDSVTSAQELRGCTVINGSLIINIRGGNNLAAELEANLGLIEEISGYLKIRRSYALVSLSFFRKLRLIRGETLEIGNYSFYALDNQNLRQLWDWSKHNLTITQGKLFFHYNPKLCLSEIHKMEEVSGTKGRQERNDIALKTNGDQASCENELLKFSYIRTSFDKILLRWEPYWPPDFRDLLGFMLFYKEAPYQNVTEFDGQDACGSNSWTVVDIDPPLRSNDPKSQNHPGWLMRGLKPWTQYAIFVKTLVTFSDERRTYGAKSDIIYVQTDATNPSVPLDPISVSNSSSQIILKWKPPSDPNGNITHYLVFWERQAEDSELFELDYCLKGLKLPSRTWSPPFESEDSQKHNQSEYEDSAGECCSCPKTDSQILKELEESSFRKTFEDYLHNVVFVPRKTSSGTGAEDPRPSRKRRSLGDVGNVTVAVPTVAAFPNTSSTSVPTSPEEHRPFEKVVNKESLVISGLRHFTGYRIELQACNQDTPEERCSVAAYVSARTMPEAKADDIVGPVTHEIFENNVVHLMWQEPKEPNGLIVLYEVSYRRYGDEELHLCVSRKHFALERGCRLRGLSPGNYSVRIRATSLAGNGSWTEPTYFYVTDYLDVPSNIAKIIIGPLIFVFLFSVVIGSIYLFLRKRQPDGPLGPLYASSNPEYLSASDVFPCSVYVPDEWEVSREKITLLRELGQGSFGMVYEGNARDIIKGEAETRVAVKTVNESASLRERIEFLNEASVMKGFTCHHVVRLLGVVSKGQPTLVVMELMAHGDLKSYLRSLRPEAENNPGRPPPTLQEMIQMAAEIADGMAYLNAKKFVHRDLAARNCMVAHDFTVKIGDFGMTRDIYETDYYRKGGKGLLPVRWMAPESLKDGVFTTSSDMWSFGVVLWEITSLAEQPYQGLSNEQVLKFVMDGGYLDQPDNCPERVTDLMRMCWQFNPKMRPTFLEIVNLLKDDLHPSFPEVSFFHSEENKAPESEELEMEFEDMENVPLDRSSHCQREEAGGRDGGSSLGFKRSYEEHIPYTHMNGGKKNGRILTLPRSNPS
Kind of test: Broad selectivity panel, 32P incorporation. It counts as biochemical. As to conditions: 40 μM ATP, read-out: Percent inhibition InsR; for inhibition at 0.1 µM: 0.1 μM compound; for inhibition at 1 µM: 1 μM compound. How it is done:
as §1

The IC50 is the concentration that inhibits the measured activity by half. Broadly, the inhibition is the relative decrease from the control value, in per cent.

The structures appear in SMILES notation.

Consider `Fc1ccc(-c2nc3occn3c2-c2ccnc(NC3CCNCC3)n2)cc1` [CCLXXX], for which the half-inhibitory concentration (IC50) worked out at 7.89 nM in test [1] and 13.1 nM in test [4]. Besides, the inhibition at 0.1 µM in test [2] is 5%; in test [3], -3%. The inhibition at 1 µM was determined as 40% in test [2] and 27% in test [3].

Consider `CN1[C@@H]2CC[C@H]1C[C@@H](Nc1nccc(-c3c(-c4ccc(F)cc4)nc4occn34)n1)C2` [CCLXXXI], for which the results for the IC50 in test [1] and in test [4] were 3.64 nM and 4.91 nM, respectively. Moreover, the inhibition at 0.1 µM in test [2] is 17%; in test [3], 26%; in test [5], -7%. In addition, the inhibition at 1 µM was found to be 33% in test [2], 35% in test [3] and 14% in test [5].

Regarding `CS(=O)(=O)N1CCC(Nc2nccc(-c3c(-c4ccc(F)cc4)nc4occn34)n2)CC1` [CCLXXIX], the results for the 50% inhibitory concentration (IC50) in test [1] and in test [4] were 5.1 nM and 0.71 nM, respectively. Also, the inhibition at 0.1 µM in test [2] amounted to 3%; in test [3] it was 2%; in test [5] it was 9%. For the same compound, the results for the inhibition at 1 µM in test [2], in test [3] and in test [5] were 10%, -3% and 2%, respectively.

For `Fc1ccc(-c2nc3occn3c2-c2ccnc(N[C@@H]3CN4CCC3CC4)n2)cc1` [LXXI], the IC50 was found to be 19.1 nM in test [1] and 27.7 nM in test [4]. For the same compound, the inhibition at 0.1 µM in test [2] is -5%; in test [3], 8%; in test [5], -25%. For the same compound, the inhibition at 1 µM is 33% in test [2], 17% in test [3] and 12% in test [5].

As to `Fc1ccc(-c2nc3occn3c2-c2ccnc(N[C@H]3CN4CCC3CC4)n2)cc1` [LXXXVII], the results for the IC50 in test [1] and in test [4] were 1.87 nM and 8.7 nM, respectively. Further, the inhibition at 0.1 µM in test [2] was 17%; in test [3], -15%; in test [5] it was -8%. Moreover, the inhibition at 1 µM was 23% in test [2], 18% in test [3] and 8% in test [5].

With `Fc1ccc(-c2nc3occn3c2-c2ccnc(NC3CN4CCC3CC4)n2)cc1` (stereo not shown) [LXXXIV], the IC50 is 9.28 nM in test [1] and 15 nM in test [4].

Take `CC(=O)N1CCC(Nc2nccc(-c3c(-c4ccc(F)cc4)nc4occn34)n2)CC1` [CCLXXVIII]: the IC50 in test [1] was 9.26 nM; in test [4], 2.38 nM. The inhibition at 0.1 µM in test [3] was 5%; in test [5], -28%. For the same compound, the inhibition at 1 µM in test [3] was 31%; in test [5] it was -4%.

With `CN(C)CC(C)(C)CNc1nccc(-c2c(-c3ccc(F)cc3)nc3occn23)n1` [CXIX], the results for the concentration for half-maximal inhibition (IC50) in test [1] and in test [4] were 33.1 nM and 17 nM, respectively. In addition, the inhibition at 0.1 µM in test [2] stood at 35%; in test [5], 8%. Moreover, the inhibition at 1 µM in test [2] stood at 33%; in test [5] it was 3%.

(Values after patent US20070270418A1, “Inhibitors of P38 and Methods of Using the Same” (priority 2003, published 2007).)
